We go through eleven compounds from PubChem BioAssay (NCI).

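1) Cells in 96-well plates. 2) Compound, 48 h, 5 concentrations. 3) Linear interpolation between surrounding doses. 4) Unreached endpoint = highest concentration. TGI is the concentration that stops growth completely.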 Where a SMILES comes first, the peptide text is derived from it. The star is where a group is joined. Boc = CC(C)(C)OC(=O)*; Bn = c1ccc(C*)cc1

Test systems include MALME-3M melanoma; CAKI-1 renal; OVCAR-4 ovarian; HOP-62 NSCLC; T-47D breast; SF-268 CNS; SF-295 CNS; SK-MEL-28 melanoma; SNB-75 CNS; SF-539 CNS; MOLT-4 leukemia; K-562 leukemia; A498 renal.
Holding throughout (assay): NCI tumour cell line growth inhibition, 48 h

With `COc1cccc(C2c3cc4c(cc3OC(N3CCCCC3)C2C)OCO4)c1O` (configuration not stated), the TGI with MALME-3M melanoma is 36.1 µM; with CAKI-1 renal, more than 53 µM; in the experiment on OVCAR-4 ovarian, more than 100 µM; in the experiment on HOP-62 NSCLC, 13.7 µM; in the experiment on T-47D breast, 80 µM; with SF-268 CNS, 99.8 µM. For the same compound, the TGI in the experiment on SF-295 CNS stood at 24.3 µM; in the experiment with SK-MEL-28 melanoma, 73.2 µM; in the experiment on SNB-75 CNS, 68.5 µM; with SF-539 CNS, 5.82 µM; in the experiment with MOLT-4 leukemia, 37.6 µM; with K-562 leukemia, 12.7 µM.
Turning to `COc1cc(Nc2nc3ccccc3nc2C(=O)O)cc(OC)c1OC`, the TGI in the experiment on MALME-3M melanoma is more than 100 µM; in the experiment with CAKI-1 renal, 76.4 µM; with A498 renal, 82.5 µM; in the experiment on HOP-62 NSCLC, more than 100 µM; in the experiment with T-47D breast, more than 100 µM; with SF-268 CNS it was more than 100 µM. The TGI with SF-295 CNS, in the experiment with SK-MEL-28 melanoma, with SNB-75 CNS, in the experiment with SF-539 CNS, in the experiment with MOLT-4 leukemia and with K-562 leukemia was more than 100 µM throughout.
For the compound `O=[N+]([O-])c1ccc(CN(CCCl)OCCCl)cc1`, the TGI in the experiment with MALME-3M melanoma, in the experiment with CAKI-1 renal, in the experiment with OVCAR-4 ovarian, with HOP-62 NSCLC, in the experiment with T-47D breast and in the experiment with SF-268 CNS was more than 100 µM each time. The TGI in the experiment on SF-295 CNS, in the experiment with SK-MEL-28 melanoma, in the experiment on SNB-75 CNS, in the experiment on SF-539 CNS, in the experiment on MOLT-4 leukemia and in the experiment on K-562 leukemia was more than 100 µM in each case.
Turning to `O=C1COc2cccnc2N1CCCCO`, the TGI in the experiment on CAKI-1 renal, in the experiment with A498 renal, with HOP-62 NSCLC, with T-47D breast, in the experiment with SF-295 CNS and in the experiment on SK-MEL-28 melanoma was more than 100 µM each time. The TGI in the experiment on SNB-75 CNS, in the experiment on SF-539 CNS and with MOLT-4 leukemia was more than 100 µM throughout.
Take `CC(C)(C)OC(=O)NC1CCCCC1NC(=O)C(=O)NC1CCCCC1NC(=O)OC(C)(C)C` (configuration not stated): the TGI was more than 100 µM in the experiment with MALME-3M melanoma; more than 100 µM in the experiment on CAKI-1 renal; 79.6 µM in the experiment on A498 renal; more than 100 µM with OVCAR-4 ovarian; 80.6 µM in the experiment with HOP-62 NSCLC; more than 100 µM in the experiment with T-47D breast. The TGI in the experiment on SF-268 CNS, in the experiment with SF-295 CNS, in the experiment on SK-MEL-28 melanoma, with SF-539 CNS, in the experiment on MOLT-4 leukemia and in the experiment on K-562 leukemia was more than 100 µM each time.
As to `CC1(C)[C@@H](Cn2ccc(=O)[nH]c2=O)CC[C@@]1(C)CO`, the TGI in the experiment on CAKI-1 renal, with A498 renal, with OVCAR-4 ovarian, in the experiment with HOP-62 NSCLC, in the experiment with T-47D breast and with SF-268 CNS was more than 100 µM throughout. Further, the TGI in the experiment with SF-295 CNS, in the experiment on SK-MEL-28 melanoma, in the experiment on SNB-75 CNS and in the experiment on K-562 leukemia was more than 100 µM throughout.
`O=C1C=CC(=O)c2c1ccc1c3ccccc3n(CCCCCn3c4ccccc4c4ccc5c(c43)C(=O)C=CC5=O)c21`: the TGI in the experiment with MALME-3M melanoma was 31.9 µM; with CAKI-1 renal it was 13.7 µM; with A498 renal, more than 95.7 µM; with HOP-62 NSCLC it was more than 100 µM; in the experiment with T-47D breast it was 24.5 µM; in the experiment on SF-268 CNS, 32.7 µM. The TGI was more than 100 µM in the experiment with SF-295 CNS; 31.5 µM in the experiment with SK-MEL-28 melanoma; 32.9 µM with SNB-75 CNS; 33.9 µM with SF-539 CNS; 5.11 µM in the experiment with MOLT-4 leukemia; 4.89 µM in the experiment on K-562 leukemia.
Consider `CC1=C(C)CC2C(=O)N(c3cc(C(C)(C)C)ccc3C(C)(C)C)C(=O)C2C1` (configuration not stated), for which the TGI was 16.4 µM with MALME-3M melanoma; more than 100 µM with CAKI-1 renal; more than 100 µM with OVCAR-4 ovarian; 82.3 µM in the experiment on HOP-62 NSCLC; more than 100 µM in the experiment with T-47D breast; 24.6 µM in the experiment on SF-268 CNS. Moreover, the TGI was more than 100 µM in the experiment with SF-295 CNS; more than 100 µM with SK-MEL-28 melanoma; 56.2 µM in the experiment with SNB-75 CNS; more than 100 µM in the experiment on SF-539 CNS; more than 100 µM with MOLT-4 leukemia; more than 100 µM in the experiment with K-562 leukemia.
`COC(=O)C(CC(C)C)NC(=O)C(C)NC(=O)C(Cc1ccc(OCc2ccccc2)cc1)NC(=O)C(COCc1ccccc1)NC(=O)OC(C)(C)C` (configuration not stated) (Boc-S(Bn)Y(Bn)AL-OMe; configuration not given here): the TGI in the experiment with MALME-3M melanoma, with CAKI-1 renal, in the experiment with OVCAR-4 ovarian, with HOP-62 NSCLC, with T-47D breast and in the experiment with SF-268 CNS was more than 100 µM in each case. For the same compound, the TGI in the experiment with SF-295 CNS, in the experiment on SK-MEL-28 melanoma, in the experiment with SNB-75 CNS, in the experiment on SF-539 CNS, in the experiment on MOLT-4 leukemia and in the experiment with K-562 leukemia was more than 100 µM in each case.
`CCO/C(O)=C(/C(=N)N1CCOCC1)C(=O)Nc1ccc(F)cc1`: the TGI in the experiment with MALME-3M melanoma, with CAKI-1 renal, in the experiment with A498 renal, with OVCAR-4 ovarian, in the experiment on HOP-62 NSCLC and with T-47D breast was more than 100 µM each time. The TGI in the experiment on SF-268 CNS, with SF-295 CNS, with SK-MEL-28 melanoma, with SNB-75 CNS, in the experiment with MOLT-4 leukemia and in the experiment with K-562 leukemia was more than 100 µM each time.
Take `O=C1C2SC34c5c2c2ccccc2n5CCC3CCCN14` (configuration not stated): the TGI with MALME-3M melanoma, in the experiment with CAKI-1 renal, in the experiment with A498 renal, in the experiment on OVCAR-4 ovarian, in the experiment with HOP-62 NSCLC and in the experiment on T-47D breast was more than 100 µM in each case. The TGI with SF-268 CNS, in the experiment on SF-295 CNS, in the experiment with SK-MEL-28 melanoma, with SF-539 CNS, in the experiment with MOLT-4 leukemia and in the experiment on K-562 leukemia was more than 100 µM in each case.
